Experimental findings from patent US8476253B2, “Amide derivative” (Daiichi Sankyo Company, Limited, priority 2009, dated 2013) are described below.

The subject of one test is muscarine M3 receptor. The test can be described thus: Effect of suppressing methacholine-induced airway contraction (in vivo, intratracheal administration). Details: species or system guinea pig. Conditions: guinea pigs, intratracheal administration 60 minutes before 30 μg/kg i.v. methacholine; AUC of increase in airway pressure over 10 minutes. Summed up:
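Anesthetized, gallamine-paralysed, ventilated male Hartley guinea pigs (350–550 g); compound in 5% glucose given intratracheally 60 min before 30 μg/kg i.v. methacholine. Airway pressure AUC over 10 min scored; ID50 from inhibition versus 5% glucose vehicle group.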

The next test addresses T1, neurokinin NK2 receptor (Cavia porcellus, UniProt Q64077).
T1 construct: Using healthy guinea pigs (body weight, 350 to 550 g; Hartley male guinea pigs); from tissue; host or cells: live anaesthetised Hartley male guinea pigs (airway, in vivo)
T1 sequence (Q64077 1-402): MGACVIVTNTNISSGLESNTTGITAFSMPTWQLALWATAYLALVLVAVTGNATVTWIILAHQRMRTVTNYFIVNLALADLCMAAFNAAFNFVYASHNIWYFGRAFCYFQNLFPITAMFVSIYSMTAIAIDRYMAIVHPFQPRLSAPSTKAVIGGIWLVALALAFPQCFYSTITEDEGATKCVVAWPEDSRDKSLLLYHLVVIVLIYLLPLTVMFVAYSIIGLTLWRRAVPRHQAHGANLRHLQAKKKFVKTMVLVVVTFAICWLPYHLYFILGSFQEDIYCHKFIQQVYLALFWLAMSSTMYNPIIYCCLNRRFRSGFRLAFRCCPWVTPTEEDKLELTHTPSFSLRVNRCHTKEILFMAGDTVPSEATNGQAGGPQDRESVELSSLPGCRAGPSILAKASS
The test can be described thus: Effect of suppressing neurokinin A-induced airway contraction (in vivo, intratracheal administration). Further details: species or system guinea pig. Conditions: guinea pigs, intratracheal administration 60 minutes before 4 μg/kg i.v. NKA, AUC of increase in airway pressure over 10 minutes; for ED50: guinea pig, read-out: ID50 (the source's name). On the procedure: Using healthy guinea pigs (body weight, 350 to 550 g; Hartley male guinea pigs), the effect of suppressing airway contraction induced by neurokinin A (NKA), which is an NK2 receptor agonist, was examined by a modified method of Konzett-Roessler (Naunyn-Schmiedebergs Arch. Exp. Pathol. Pharmakol. 195, 71 [1940]) using airway pressure as an indicator.
A tracheal cannula and a venous cannula were attached to a guinea pig anesthetized with pentobarbital (50 mg/mL solution, 0.40 to 0.50 mL/body, subcutaneous administration). An arterial cannula filled with heparin-containing physiological saline (100 U/mL) was further attached, and blood pressure and heart rate were monitored via an amplifier and an instantaneous heart rate meter. Subsequently, gallamine (20 mg/body, intravenous administration) was administered to terminate spontaneous breathing, and 10 mL/kg of positive pressure breathing (Ugo-Basile Biological Research Apparatus, Cat. No. 7025) was rapidly performed at 60 times/min. The airway pressure during artificial breathing was detected with a pressure transducer (TP-200T or TP-400T; Nihon Kohden Corporation) attached to a side branch of the tracheal cannula, amplified (AP-601G; Nihon Kohden Corporation), and recorded in a recorder. After the airway pressure, blood pressure, and heart rate were stabilized, 4 μg/kg of NKA was intravenously administered from the venous cannula to induce airway contraction, and the airway pressure was measured for the following 10 minutes.
The test substance was dissolved in a 5% glucose solution, and a 0.5 mL/kg solution was intratracheally administered with an intratracheal administration apparatus (model 1A-1B; Penn-Century, Inc.) 60 minutes before stimulation with NKA.
The AUC of increase in the airway pressure over 10 minutes after administration of NKA was determined as the intensity of NKA-induced airway contraction and calculated as an ID50 value from the inhibition rate based on the value of the control group (5% glucose solution intratracheal administration group).

Counter-ions that a name gives are not always drawn.

On to `CN(CCN1CCC(OC(=O)Nc2ccccc2-c2ccccc2)CC1)C(=O)CCCCCNc1ccc(C(=O)N(C)CCCN(C)C(=O)CO[C@H]2Cc3ccccc3C23CCN(CC[C@@]2(c4ccc(F)cc4)CN(C(=O)c4cc(C(F)(F)F)cc(C(F)(F)F)c4)CO2)CC3)cc1` [Example 72, 1-(2-{[6-({4-[{3-[({[(2S)-1′-{2-[(5R)-3-[3,5-Bis(trifluoromethyl)benzoyl]-5-(4-fluorophenyl)-1,3-oxazolidin-5-yl]ethyl}-2,3-dihydrospiro[indene-1,4′-piperidin]-2-yl]oxy}acetyl)(methyl)amino]propyl}(methyl)carbamoyl]phenyl}amino)hexanoyl](methyl)amino}ethyl)piperidin-4-yl biphenyl-2-ylcarbamate], for which the ID50 in the test on muscarine M3 receptor was 0.0635 mg/kg. The ED50 on neurokinin NK2 receptor was 0.0151 mg/kg.

In turn, `CN(CCN1CCC(OC(=O)Nc2ccccc2-c2ccccc2)CC1)C(=O)CCCCCNc1cccc(C(=O)N(C)CCCN(C)C(=O)CO[C@H]2Cc3ccccc3C23CCN(CC[C@@]2(c4ccc(F)cc4)CN(C(=O)c4cc(C(F)(F)F)cc(C(F)(F)F)c4)CO2)CC3)c1` [Example 43, 1-(2-{[6-({3-[{3-[({[(2S)-1′-{2-[(5R)-3-[3,5-Bis(trifluoromethyl)benzoyl]-5-(4-fluorophenyl)-1,3-oxazolidin-5-yl]ethyl}-2,3-dihydrospiro[indene-1,4′-piperidin]-2-yl]oxy}acetyl)(methyl)amino]propyl}(methyl)carbamoyl]phenyl}amino)hexanoyl](methyl)amino}ethyl)piperidin-4-yl biphenyl-2-ylcarbamate trihydrochloride] registered an ID50 with muscarine M3 receptor of 0.0757 mg/kg. Also, the ED50 on neurokinin NK2 receptor came out at 0.0241 mg/kg.

The compound `CN(CCN1CCC(OC(=O)Nc2ccccc2-c2ccccc2)CC1)C(=O)CCCCCN(C)c1ccc(C(=O)N(C)CCCN(C)C(=O)CO[C@H]2Cc3ccccc3C23CCN(CC[C@@]2(c4ccc(F)cc4)CN(C(=O)c4cc(C(F)(F)F)cc(C(F)(F)F)c4)CO2)CC3)cc1` [Example 76, 1-{2-[{6-[{4-[{3-[({[(2S)-1′-{2-[(5R)-3-[3,5-Bis(trifluoromethyl)benzoyl]-5-(4-fluorophenyl)-1,3-oxazolidin-5-yl]ethyl}-2,3-dihydrospiro[indene-1,4′-piperidin]-2-yl]oxy}acetyl)(methyl)amino]propyl}(methyl)carbamoyl]phenyl}(methyl)amino]hexanoyl}(methyl)amino]ethyl}piperidin-4-yl biphenyl-2-ylcarbamate] had an ID50 with muscarine M3 receptor of 0.0292 mg/kg. Besides, the ED50 at neurokinin NK2 receptor was 0.0176 mg/kg.

The compound `CN(CCN1CCC(OC(=O)Nc2ccccc2-c2ccccc2)CC1)C(=O)CCCCCCN(C)c1ccc(C(=O)N(C)CCCN(C)C(=O)CO[C@H]2Cc3ccccc3C23CCN(CC[C@@]2(c4ccc(F)cc4)CN(C(=O)c4cc(C(F)(F)F)cc(C(F)(F)F)c4)CO2)CC3)cc1` [Example 40, 1-{2-[{7-[{4-[{3-[({[(2S)-1′-{2-[(5R)-3-[3,5-Bis(trifluoromethyl)benzoyl]-5-(4-fluorophenyl)-1,3-oxazolidin-5-yl]ethyl}-2,3-dihydrospiro[indene-1,4′-piperidin]-2-yl]oxy}acetyl)(methyl)amino]propyl}(methyl)carbamoyl]phenyl}(methyl)amino]heptanoyl}(methyl)amino]ethyl}piperidin-4-yl biphenyl-2-ylcarbamate trihydrochloride] yielded an ID50 in the test on muscarine M3 receptor of 0.0754 mg/kg. Further, on neurokinin NK2 receptor, the ED50 is 0.0573 mg/kg.

In the case of `CN(CCCCCC(=O)N(C)CCN1CCC(OC(=O)Nc2ccccc2-c2ccccc2)CC1)Cc1ccc(C(=O)N(C)CCCN(C)C(=O)CO[C@H]2Cc3ccccc3C23CCN(CC[C@@]2(c4ccc(F)cc4)CN(C(=O)c4cc(C(F)(F)F)cc(C(F)(F)F)c4)CO2)CC3)cc1` [Example 74, 1-{2-[{6-[{4-[{3-[({[(2S)-1′-{2-[(5R)-3-[3,5-Bis(trifluoromethyl)benzoyl]-5-(4-fluorophenyl)-1,3-oxazolidin-5-yl]ethyl}-2,3-dihydrospiro[indene-1,4′-piperidin]-2-yl]oxy}acetyl)(methyl)amino]propyl}(methyl)carbamoyl]benzyl}(methyl)amino]hexanoyl}(methyl)amino]ethyl}piperidin-4-yl biphenyl-2-ylcarbamate], the ID50 with muscarine M3 receptor is 0.043 mg/kg. Further, the ED50 at neurokinin NK2 receptor amounted to 0.0127 mg/kg.

With `CN(CCN1CCC(OC(=O)Nc2ccccc2-c2ccccc2)CC1)C(=O)CCCCCNc1ccc(N(C)C(=O)CCCN(C)C(=O)CO[C@H]2Cc3ccccc3C23CCN(CC[C@@]2(c4ccc(F)cc4)CN(C(=O)c4cc(C(F)(F)F)cc(C(F)(F)F)c4)CO2)CC3)cc1` [Example 84, 1-(2-{[6-({4-[{-4-[({[(2S)-1′-{2-[(5R)-3-[3,5-Bis(trifluoromethyl)benzoyl]-5-(4-fluorophenyl)-1,3-oxazolidin-5-yl]ethyl}-2,3-dihydrospiro[indene-1,4′-piperidin]-2-yl]oxy}acetyl)(methyl)amino]butanoyl}(methyl)amino]phenyl}amino)hexanoyl](methyl)amino}ethyl)piperidin-4-yl biphenyl-2-ylcarbamate trihydrochloride], the ID50 in the test with muscarine M3 receptor is 0.0143 mg/kg. Besides, at neurokinin NK2 receptor, the ED50 is 0.0221 mg/kg.

In the case of `CN(CCN1CCC(OC(=O)Nc2ccccc2-c2ccccc2)CC1)C(=O)CCCCCNc1ccc(C(=O)N(C)CCN(C)C(=O)CO[C@H]2Cc3ccccc3C23CCN(CC[C@@]2(c4ccc(F)cc4)CN(C(=O)c4cc(C(F)(F)F)cc(C(F)(F)F)c4)CO2)CC3)cc1` [Example 15, 1-(2-{[6-({4-[{2-[({[(2S)-1-{2-[(5R)-3-[3,5-Bis(trifluoromethyl)benzoyl]-5-(4-fluorophenyl)-1,3-oxazolidin-5-yl]ethyl}-2,3-dihydrospiro[indene-1,4′-piperidin]-2-yl]oxy}acetyl)(methyl)amino]ethyl}(methyl)carbamoyl]phenyl}amino)hexanoyl](methyl)amino}ethyl)piperidin-4-yl biphenyl-2-ylcarbamate], the ID50 in the test with muscarine M3 receptor turned out to be 0.0375 mg/kg; on neurokinin NK2 receptor it was 0.0377 mg/kg.

In turn, `CN(CCN1CCC(OC(=O)Nc2ccccc2-c2ccccc2)CC1)C(=O)CCCCCNc1ncc(C(=O)N(C)CCCN(C)C(=O)CO[C@H]2Cc3ccccc3C23CCN(CC[C@@]2(c4ccc(F)cc4)CN(C(=O)c4cc(C(F)(F)F)cc(C(F)(F)F)c4)CO2)CC3)cn1` [Example 14, 1-(2-{[6-({5-[{3-[({[(2S)-1′-{2-[(5R)-3-[3,5-Bis(trifluoromethyl)benzoyl]-5-(4-fluorophenyl)-1,3-oxazolidin-5-yl]ethyl}-2,3-dihydrospiro[indene-1,4′-piperidin]-2-yl]oxy}acetyl)(methyl)amino]propyl}(methyl)carbamoyl]pyrimidin-2-yl}amino)hexanoyl](methyl)amino}ethyl)piperidin-4-yl biphenyl-2-ylcarbamate trihydrochloride] returned an ID50 with muscarine M3 receptor of 0.0129 mg/kg. Besides, the ED50 on neurokinin NK2 receptor was 0.0284 mg/kg.

In turn, `CN(CCN1CCC(OC(=O)Nc2ccccc2-c2ccccc2)CC1)C(=O)CCOCCNc1ccc(C(=O)N(C)CCCN(C)C(=O)CO[C@H]2Cc3ccccc3C23CCN(CC[C@@]2(c4ccc(F)cc4)CN(C(=O)c4cc(C(F)(F)F)cc(C(F)(F)F)c4)CO2)CC3)cc1` [Example 29, 1-{2-[{3-[2-({4-[{3-[({[(2S)-1′-{2-[(5R)-3-[3,5-Bis(trifluoromethyl)benzoyl]-5-(4-fluorophenyl)-1,3-oxazolidin-5-yl]ethyl}-2,3-dihydrospiro[indene-1,4′-piperidin]-2-yl]oxy}acetyl)(methy)amino]propyl}(methyl)carbamoyl]phenyl}amino)ethoxy]propanoyl}(methyl)amino]ethyl}piperidin-4-yl biphenyl-2-ylcarbamate trihydrochloride] came in with an ID50 in the test with muscarine M3 receptor of 0.0266 mg/kg. Also, the ED50 at neurokinin NK2 receptor was 0.0438 mg/kg.
